Measurements: ChEMBL document CHEMBL1128051, “Radioprotective effects of -galactosylceramides” (1995)
Values joined by “and” are separate entries in the source; they are usually repeats but may differ in a detail not shown here. Equal values may be shown once.

What was measured:
Type in all cases: functional
[1] = test system: Mus musculus; experiment: Evaluation of Radioprotective effect of the intravenously administered compound (0.1 mg/kg on day 0,4,8) after irradiation on mice with 9 Gy of X-ray on day 25
[2] = test system: Mus musculus; experiment: Evaluation of Radioprotective effect of the intravenously administered compound (0.1 mg/kg on day 0,4,8) after irradiation on mice with 9 Gy of X-ray on day 15
[3] = test system: Mus musculus; experiment: Evaluation of Radioprotective effect of the intravenously administered compound (0.1 mg/kg on day 0,4,8) after irradiation on mice with 9 Gy of X-ray on day 20
[4] = test system: Mus musculus; experiment: Evaluation of Radioprotective effect of the intravenously administered compound (0.1 mg/kg on day 0,4,8) after irradiation on mice with 9 Gy of X-ray on day 35
[5] = test system: Mus musculus; experiment: Evaluation of Radioprotective effect of the intravenously administered compound (0.1 mg/kg on day 0,4,8) after irradiation on mice with 9 Gy of X-ray on day 10

Row | SMILES | Survival [1] [%] | Survival [2] | Survival [3] [%] | Survival [4] | Survival [5] [%]
1 | CCCCCCCCCCCCCCCCCCCCCC[C@@H](O)C(=O)N[C@@H](CO[C@H]1O[C@@H](CO)[C@H](O)[C@H](O)[C@@H]1O)[C@H](O)[C@H](O)CCCCCCCCCCCCCC | 80 | 100% | 80 | 90% and 80% | 100
2 | CCCCCCCCCCCCCCCCCCCCCCCC(=O)NC(CO[C@H]1O[C@@H](CO)[C@H](O)[C@H](O)[C@@H]1O)[C@H](O)CCCCCCCCCCCCCCC (single isomer, unassigned) | 90 | 100% | 90 | 90% | 100
3 | CCCCCCCCCCCCCCCCCCCCCC[C@@H](O)C(=O)NC(CO[C@H]1O[C@@H](CO)[C@H](O)[C@H](O)[C@@H]1O)[C@H](O)CCCCCCCCCCCCCCC (single isomer, unassigned) | 90 | 100% | 90 | 90% | 100
4 | CCCCCCCCCCCCCCCCCCCCCCCC(=O)N[C@@H](CO[C@H]1O[C@@H](CO)[C@H](O)[C@H](O)[C@@H]1O)C(O)[C@H](O)CCCCCCCCCCCCCC (single isomer, unassigned) | 90 | 100% and 90% | 90 | 90% | 100
5 | CCCCCCCCCCCCCCC[C@@H](O)[C@H](CO[C@H]1O[C@@H](CO)[C@H](O)[C@H](O)[C@@H]1O)NC(=O)CCCCCCCCCCCCC (stereo in doubt; form 1) | 90 | 100% and 90% | 90 | 90% | 100
6 | CCCCCCCCCCCCCCC[C@@H](O)[C@H](CO[C@H]1O[C@@H](CO)[C@H](O)[C@H](O)[C@@H]1O)NC(=O)CCCCCCCCCCCCC (stereo in doubt; form 2) | 20 | – | 20 | 20% | –
